According to US12162890B2 (Novartis AG, priority 2015, dated 2024):

Biological target: HEK293 cells with stable expression of the GRIN1 gene and tetracycline-inducible expression of the GRIN2B gene (NMDA receptor, NR2B) (Homo sapiens, UniProt Q13224)
Assay: Fluo-8 Ca2+ flux assay: reversal of Ro 25-6981-mediated suppression of the Ca2+ response to co-agonist (glutamate/glycine); further: test concentration or dose not given here
Format: cell-based
Details: reversal of the Ro 25-6981 suppression of the Ca2+ response to co-agonist (glutamate/glycine)

HEK293 cells with stable expression of the GRIN1 gene and tetracycline-inducible expression of the GRIN2B gene (NMDA receptor, NR2B), sequence (Q13224 27-1484, other chains not shown): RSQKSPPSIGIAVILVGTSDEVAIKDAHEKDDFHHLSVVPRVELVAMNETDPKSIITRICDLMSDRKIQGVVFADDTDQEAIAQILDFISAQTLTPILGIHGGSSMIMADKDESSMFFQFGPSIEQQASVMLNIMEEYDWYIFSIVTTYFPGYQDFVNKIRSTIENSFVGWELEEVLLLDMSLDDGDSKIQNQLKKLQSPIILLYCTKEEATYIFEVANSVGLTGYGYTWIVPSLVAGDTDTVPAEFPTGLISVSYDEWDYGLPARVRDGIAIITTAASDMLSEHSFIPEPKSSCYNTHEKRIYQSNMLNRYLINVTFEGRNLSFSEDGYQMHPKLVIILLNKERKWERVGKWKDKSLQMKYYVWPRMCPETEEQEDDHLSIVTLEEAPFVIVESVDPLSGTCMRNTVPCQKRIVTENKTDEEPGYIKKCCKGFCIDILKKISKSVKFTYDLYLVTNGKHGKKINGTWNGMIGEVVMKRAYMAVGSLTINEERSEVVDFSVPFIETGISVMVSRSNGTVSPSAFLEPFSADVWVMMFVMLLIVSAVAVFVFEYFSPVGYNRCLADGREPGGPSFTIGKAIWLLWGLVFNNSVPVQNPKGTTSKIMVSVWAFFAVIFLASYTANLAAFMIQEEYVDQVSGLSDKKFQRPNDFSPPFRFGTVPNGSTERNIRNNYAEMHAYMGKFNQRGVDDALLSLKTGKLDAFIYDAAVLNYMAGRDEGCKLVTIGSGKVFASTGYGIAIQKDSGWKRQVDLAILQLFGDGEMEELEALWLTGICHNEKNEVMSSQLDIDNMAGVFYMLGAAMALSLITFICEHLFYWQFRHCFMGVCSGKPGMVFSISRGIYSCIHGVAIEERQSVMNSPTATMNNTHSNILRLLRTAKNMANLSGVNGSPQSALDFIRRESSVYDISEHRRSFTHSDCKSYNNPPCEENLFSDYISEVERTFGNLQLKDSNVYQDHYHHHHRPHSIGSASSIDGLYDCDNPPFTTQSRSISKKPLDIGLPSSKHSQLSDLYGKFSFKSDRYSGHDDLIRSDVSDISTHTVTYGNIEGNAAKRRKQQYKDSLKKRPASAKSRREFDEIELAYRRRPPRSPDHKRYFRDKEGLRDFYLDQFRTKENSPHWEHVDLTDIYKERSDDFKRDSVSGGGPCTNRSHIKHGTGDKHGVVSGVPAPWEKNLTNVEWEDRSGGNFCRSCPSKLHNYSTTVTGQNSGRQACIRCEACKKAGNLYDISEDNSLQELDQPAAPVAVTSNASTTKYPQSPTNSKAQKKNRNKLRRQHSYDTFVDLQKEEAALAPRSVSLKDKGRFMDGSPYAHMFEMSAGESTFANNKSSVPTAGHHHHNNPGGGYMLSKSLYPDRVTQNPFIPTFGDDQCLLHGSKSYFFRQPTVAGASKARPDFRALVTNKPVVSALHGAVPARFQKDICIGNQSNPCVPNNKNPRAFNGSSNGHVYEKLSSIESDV

Row | Response Recovered (%) | Structure (SMILES)
1 | 34 | CC1(F)CN(C(=O)Cn2ccn3cnc(-c4ccc(F)c(Cl)c4)c3c2=O)C1 [Example 445, 1-(3-chloro-4-fluorophenyl)-7-(2-(3-fluoro-3-methylazetidin-1-yl)-2-oxoethyl)imidazo[1,5-a]pyrazin-8(7H)-one]
2 | 65 | COCn1cc(-c2ccc(F)c(C(F)(F)F)c2)c2c(=O)n(CC(=O)N3CCC(F)C3)ccc21 (stereo not shown) [Example 238, 3-(4-fluoro-3-(trifluoromethyl)phenyl)-5-(2-(3-fluoropyrrolidin-1-yl)-2-oxoethyl)-1-(methoxymethyl)-1H-pyrrolo[3,2-c]pyridin-4(5H)-one]
3 | 160 | CC1(F)CN(C(=O)Cn2ccn3ccc(-c4ccc(F)c(C(F)(F)F)c4)c3c2=O)C1 [Example 401, 8-(4-fluoro-3-(trifluoromethyl)phenyl)-2-(2-(3-fluoro-3-methylazetidin-1-yl)-2-oxoethyl)pyrrolo[1,2-a]pyrazin-1(2H)-one]
4 | 104 | O=C(Cn1ccc2scc(-c3ccc(Cl)c(Cl)c3)c2c1=O)N1CC[C@@H](F)C1 [Example 29, (R)-3-(3,4-dichlorophenyl)-5-(2-(3-fluoropyrrolidin-1-yl)-2-oxoethyl)thieno[3,2-c]pyridin-4(5H)-one]
5 | 62 | Cn1cc(-c2ccc(Cl)c(Cl)c2)c2c(=O)n(CC(=O)N3CCC(F)C3)ccc21 (stereo not shown) [Example 250, 3-(3,4-dichlorophenyl)-5-(2-(3-fluoropyrrolidin-1-yl)-2-oxoethyl)-1-methyl-1H-pyrrolo[3,2-c]pyridin-4(5H)-one]
6 | 44 | O=C(Cn1ccc2c(c(-c3ccc(F)c(C(F)(F)F)c3)cn2-c2ccnnc2)c1=O)N1CCC(F)C1 (stereo not shown) [Example 262, 3-(4-fluoro-3-(trifluoromethyl)-phenyl)-5-(2-(3-fluoropyrrolidin-1-yl)-2-oxoethyl)-1-(pyridazin-4-yl)-1H-pyrrolo[3,2-c]pyridin-4(5H)-one]
7 | 10 | N#Cc1ncc(-c2csc3ccn(CC(=O)N4CC(F)(CF)C4)c(=O)c23)cc1Cl [Example 138, 3-chloro-5-(5-(2-(3-fluoro-3-(fluoromethyl)azetidin-1-yl)-2-oxoethyl)-4-oxo-4,5-dihydrothieno[3,2-c]pyridin-3-yl)picolinonitrile]
8 | 25 | Cn1cc(-c2ccc(F)c(Cl)c2)c2c(=O)n(CC(=O)N3CCCC3)cnc21 [Example 159, 5-(3-chloro-4-fluorophenyl)-7-methyl-3-(2-oxo-2-(pyrrolidin-1-yl)ethyl)-3H-pyrrolo[2,3-d]pyrimidin-4(7H)-one]
9 | 4 | O=C(Cn1cnc2csc(-c3ccc(Cl)c(F)c3)c2c1=O)N1CCC(C(F)(F)F)C1 (stereo not shown) [Example 365, 5-(4-chloro-3-fluorophenyl)-3-(2-oxo-2-(3-(trifluoromethyl)pyrrolidin-1-yl)ethyl)thieno[3,4-d]pyrimidin-4(3H)-one]
10 | −0.39 | CCC1(F)CN(C(=O)Cn2ccc3scc(-c4cncc(Cl)n4)c3c2=O)C1 [Example 147, 3-(6-chloropyrazin-2-yl)-5-(2-(3-ethyl-3-fluoroazetidin-1-yl)-2-oxoethyl)thieno[3,2-c]pyridin-4(5H)-one]
11 | 130 | O=C(Cn1cc(/C=N/O)c2scc(-c3ccc(F)c(C(F)(F)F)c3)c2c1=O)N1CCC(F)C1 (stereo not shown) [Example 134, (E)-3-(4-fluoro-3-(trifluoromethyl)phenyl)-5-(2-(3-fluoropyrrolidin-1-yl)-2-oxoethyl)-4-oxo-4,5-dihydrothieno[3,2-c]pyridine-7-carbaldehyde oxime]
12 | 48 | CCOCc1cn(CC(=O)N2CCC(F)C2)c(=O)c2c(-c3ccc(F)c(C(F)(F)F)c3)csc12 (stereo not shown) [Example 127, 7-(ethoxymethyl)-3-(4-fluoro-3-(trifluoromethyl)phenyl)-5-(2-(3-fluoropyrrolidin-1-yl)-2-oxoethyl)thieno[3,2-c]pyridin-4(5H)-one]
13 | 1.5 | O=C(Cn1ccn2ccc(-c3ccc(F)c(Cl)c3)c2c1=O)N1CC(F)(c2ccccc2)C1 [Example 399, 8-(3-chloro-4-fluorophenyl)-2-(2-(3-fluoro-3-phenylazetidin-1-yl)-2-oxoethyl)pyrrolo[1,2-a]pyrazin-1(2H)-one]
14 | 49 | O=C(Cn1ccn2ccc(-c3ccc(F)c(Cl)c3)c2c1=O)N1CCC(F)C1 (stereo not shown) [Example 393, 8-(3-chloro-4-fluorophenyl)-2-(2-(3-fluoropyrrolidin-1-yl)-2-oxoethyl)pyrrolo[1,2-a]pyrazin-1(2H)-one]
15 | 61 | CCOCn1cc(-c2ccc(F)c(C(F)(F)F)c2)c2c(=O)n(CC(=O)N3CCC(F)C3)ccc21 (stereo not shown) [Example 241, 1-(ethoxymethyl)-3-(4-fluoro-3-(trifluoromethyl)phenyl)-5-(2-(3-fluoropyrrolidin-1-yl)-2-oxoethyl)-1H-pyrrolo[3,2-c]pyridin-4(5H)-one]
16 | 66 | O=C(Cn1ccc2scc(-c3ccc(F)c(Cl)c3)c2c1=O)N1CC(F)(F)C1 [Example 8, 3-(3-Chloro-4-fluorophenyl)-5-[2-(3,3-difluoro-azetidin-1-yl)-2-oxo-ethyl]-5H-thieno[3,2-c]pyridin-4-one]
17 | 19 | Cc1nc(-c2ccc(F)c(C(F)(F)F)c2)c2c(=O)n(CC(=O)N3CCC(F)C3)ccn12 (stereo not shown) [Example 427, 1-(4-fluoro-3-(trifluoromethyl)phenyl)-7-(2-(3-fluoropyrrolidin-1-yl)-2-oxoethyl)-3-methylimidazo[1,5-a]pyrazin-8(7H)-one]
18 | −4.1 | CCC1(F)CN(C(=O)Cn2ccc3scc(-c4cnc(Cl)nc4)c3c2=O)C1 [Example 141, 3-(2-chloropyrimidin-5-yl)-5-(2-(3-ethyl-3-fluoroazetidin-1-yl)-2-oxoethyl)thieno[3,2-c]pyridin-4(5H)-one]
19 | 34 | O=C(Cn1ccc2scc(-c3ccc(Cl)c(F)c3)c2c1=O)N1CCCC1 [Example 2, 3-(4-chloro-3-fluorophenyl)-5-(2-oxo-2-(pyrrolidin-1-yl)ethyl)thieno[3,2-c]pyridin-4(5H)-one]
20 | 68 | CC1(F)CN(C(=O)Cn2ccn3cnc(-c4ccc(F)c(C(F)(F)F)c4)c3c2=O)C1 [Example 446, 1-(4-fluoro-3-(trifluoromethyl)phenyl)-7-(2-(3-fluoro-3-methylazetidin-1-yl)-2-oxoethyl)imidazo[1,5-a]pyrazin-8(7H)-one]
21 | 17 | CC1(F)CN(C(=O)Cn2ccc3scc(-c4cnc(C#N)c(Cl)c4)c3c2=O)C1 [Example 136, 3-chloro-5-(5-(2-(3-fluoro-3-methylazetidin-1-yl)-2-oxoethyl)-4-oxo-4,5-dihydrothieno[3,2-c]pyridin-3-yl)picolinonitrile]
22 | 120 | CC1(F)CN(C(=O)Cn2ccc3scc(-c4ccc(Cl)c(F)c4)c3c2=O)C1 [Example 18, 3-(4-chloro-3-fluorophenyl)-5-(2-(3-fluoro-3-methylazetidin-1-yl)-2-oxoethyl)thieno[3,2-c]pyridin-4(5H)-one]
23 | 43 | Cc1cn(CC(=O)N2CCC(F)C2)c(=O)c2c(-c3ccc(Cl)c(Cl)c3)ccn12 (stereo not shown) [Example 413, 8-(3,4-dichlorophenyl)-2-(2-(3-fluoropyrrolidin-1-yl)-2-oxoethyl)-4-methylpyrrolo[1,2-a]pyrazin-1(2H)-one]
24 | 8 | O=C(Cn1cnc2occ(-c3ccc(Cl)cc3)c2c1=O)N1CC(F)(F)C1 [Example 389, 5-(4-chlorophenyl)-3-(2-(3,3-difluoroazetidin-1-yl)-2-oxoethyl)furo[2,3-d]pyrimidin-4(3H)-one]
25 | 36 | O=C(Cn1cnc2[nH]cc(-c3ccc(Cl)cc3)c2c1=O)N1CC(F)(F)C1 [Example 154, 5-(4-chlorophenyl)-3-(2-(3,3-difluoroazetidin-1-yl)-2-oxoethyl)-3H-pyrrolo[2,3-d]pyrimidin-4(7H)-one]
26 | 54 | O=C(Cn1ccc2c(c(-c3ccc(F)c(C(F)(F)F)c3)cn2CCO)c1=O)N1CCC(F)C1 (stereo not shown) [Example 256, 3-(4-fluoro-3-(trifluoromethyl)phenyl)-5-(2-(3-fluoropyrrolidin-1-yl)-2-oxoethyl)-1-(2-hydroxyethyl)-1H-pyrrolo[3,2-c]pyridin-4(5H)-one]
27 | 14 | CC1(O)CN(C(=O)Cn2ccc3scc(-c4ccc(F)c(C(F)(F)F)c4)c3c2=O)C1 [Example 55, 3-(4-fluoro-3-(trifluoromethyl)phen-yl)-5-(2-(3-hydroxy-3-methylazetidin-1-yl)-2-oxoethyl)thieno[3,2-c]pyridin-4(5H)-one]
28 | 15 | O=C(Cn1ccc2scc(-c3ccc(F)c(Cl)c3)c2c1=O)N1CC(F)(c2ccccc2)C1 [Example 57, 3-(3-chloro-4-fluorophenyl)-5-(2-(3-fluoro-3-phenylazetidin-1-yl)-2-oxoethyl)thieno[3,2-c]pyridin-4(5H)-one]

Row | Structure (SMILES) | Response Recovered (%)
29 | O=C(Cn1ccn2ncc(-c3ccc(F)c(C(F)(F)F)c3)c2c1=O)N1CCC(F)C1 (stereo not shown) [Example 321, 3-(4-fluoro-3-(trifluoromethyl)phenyl)-5-(2-(3-fluoropyrrolidin-1-yl)-2-oxoethyl)pyrazolo[1,5-a]pyrazin-4(5H)-one] | 46
30 | C[Si](C)(C)CCOCn1cc(-c2ccc(Cl)c(F)c2)c2c(=O)n(CC(=O)N3CCC(F)C3)ccc21 (stereo not shown) [Example 202, 3-(4-chloro-3-fluorophenyl)-5-(2-(3-fluoropyrrolidin-1-yl)-2-oxoethyl)-1-((2-(trimethylsilyl)ethoxy)methyl)-1H-pyrrolo[3,2-c]pyridin-4(5H)-one] | 32
31 | C[Si](C)(C)CCOCn1cc(-c2ccc(Cl)c(C(F)(F)F)c2)c2c(=O)n(CC(=O)N3CC(F)(F)C3)ccc21 [Example 200, 3-(4-chloro-3-(trifluoromethyl)phenyl)-5-(2-(3,3-difluoroazetidin-1-yl)-2-oxoethyl)-1-((2-(trimethylsilyl)ethoxy)methyl)-1H-pyrrolo[3,2-c]pyridin-4(5H)-one] | 18
